Measurements as given in publication PMC8247773, “Benzohydrazide and Phenylacetamide Scaffolds: New Putative ParE Inhibitors” (Frontiers in Bioengineering and Biotechnology, 2021).
In brackets after ≈: the same amount, converted by molar mass.

How the values were obtained:
[1] = tested on: Staphylococcus epidermis (NCIM 2493); design: method as in Yele et al., 2020, 2021; conditions: ref Yele et al., 2020, 2021; cited from earlier work
[2] = tested on: Escherichia coli (NCIM 2567); design: method as in Yele et al., 2020, 2021; conditions: ref Yele et al., 2020, 2021; cited from earlier work
MRSA (ATCC43300) [3] = test: Antibacterial susceptibility test, microbroth dilution MIC; type: cell-based, methicillin-resistant Staphylococcus aureus; conditions: mean ± SD
[4] = tested on: Escherichia coli (NCIM 2065); test: as above; type: cell-based; conditions: E. Coli (NCIM 2065); mean ± SD
E. coli ParE enzyme = molecular target: T1, E. coli ParE enzyme (Escherichia coli, UniProt P20083); test: E. coli ParE ATPase enzyme inhibition assay (ProFoldin kit, malachite green); type: biochemical; conditions: ATPase activity, mean ± SD (n = 3)
T1 construct: purchased ProFoldin, Hudson, United States
Procedure: The assay was performed as per the standard protocol provided by the ProFoldin. […] ParE hydrolyzes ATP as the source of molecular energy to perform decatenation reactions. Fluoroquinolones and aminocoumarins usually block ATPase activity to hinder the biological activities of topoisomerase II. Thus, the topoisomerase ATPase assay can be used for high-throughput screening of topoisomerase inhibitors. The ATPase activity of the E. coli ParE enzyme was based on the detection of inorganic phosphate produced by the hydrolysis of ATP in the presence of DNA. The phosphate is detected using a microplate reader at an absorbance wavelength of 650 nm. The selected compounds were tested for the inhibition of ATPase activity of ParE enzyme. […] The reaction mixture was incubated for 1 h at 37°C and then quenched with 45 μL of Dye. Incubate for 5 min, and the absorbance was measured at 650 nm. The IC50 values were determined from the absorbance readings using no enzyme and no compound controls. They were calculated using the non-linear regression curve fit method.

[5] = tested on: Mycobacterium tuberculosis (NCIM 2984); design: method as in Yele et al., 2020, 2021; conditions: ref Yele et al., 2020, 2021; cited from earlier work
[6] = tested on: Klebsiella pneumonia (NCIM 2706); design: method as in Yele et al., 2020, 2021; conditions: ref Yele et al., 2020, 2021; cited from earlier work
[7] = tested on: Escherichia coli (NCIM 2065); test: Minimum bactericidal concentration (MBC); type: cell-based; conditions: E. Coli (NCIM 2065); for MBC/MIC: ratio ≤2 bactericidal, ≥4 tolerance
Procedure: (§1) MBC can be defined as the minimum concentration of a compound required to kill the bacteria over a fixed period under precise conditions. […] Colonies were counted, and colony forming unit (CFU) per milliliter was calculated.

[8] = tested on: Bacillus subtilis (NCIM 2545); design: method as in Yele et al., 2020, 2021; conditions: ref Yele et al., 2020, 2021; cited from earlier work
MRSA (ATCC43300) [9] = test: Minimum bactericidal concentration (MBC); type: cell-based, methicillin-resistant Staphylococcus aureus
Procedure: as §1

MRSA (NCIM 5021) [10] = test: Minimum bactericidal concentration (MBC); type: cell-based, methicillin-resistant Staphylococcus aureus
Procedure: as §1

[11] = tested on: Staphylococcus aureus (NCIM 5022); design: method as in Yele et al., 2020, 2021; conditions: ref Yele et al., 2020, 2021; cited from earlier work
[12] = tested on: Pseudomonas aeruginosa (NCIM 2036); design: method as in Yele et al., 2020, 2021; conditions: ref Yele et al., 2020, 2021; cited from earlier work
MRSA (NCIM 5021) [13] = test: Antibacterial susceptibility test, microbroth dilution MIC; type: cell-based, methicillin-resistant Staphylococcus aureus; conditions: mean ± SD
E. coli = test: Checkerboard synergy with FDA approved drugs; type: cell-based, Escherichia coli
[14] = FIC of compound 5 in combination
[15] = FIC of compound 21 in combination with the row's drug
[16] = FIC of the drug in combination with compound 5
[17] = FIC of the drug in combination with compound 21

T1 sequence (P20083 whole entry): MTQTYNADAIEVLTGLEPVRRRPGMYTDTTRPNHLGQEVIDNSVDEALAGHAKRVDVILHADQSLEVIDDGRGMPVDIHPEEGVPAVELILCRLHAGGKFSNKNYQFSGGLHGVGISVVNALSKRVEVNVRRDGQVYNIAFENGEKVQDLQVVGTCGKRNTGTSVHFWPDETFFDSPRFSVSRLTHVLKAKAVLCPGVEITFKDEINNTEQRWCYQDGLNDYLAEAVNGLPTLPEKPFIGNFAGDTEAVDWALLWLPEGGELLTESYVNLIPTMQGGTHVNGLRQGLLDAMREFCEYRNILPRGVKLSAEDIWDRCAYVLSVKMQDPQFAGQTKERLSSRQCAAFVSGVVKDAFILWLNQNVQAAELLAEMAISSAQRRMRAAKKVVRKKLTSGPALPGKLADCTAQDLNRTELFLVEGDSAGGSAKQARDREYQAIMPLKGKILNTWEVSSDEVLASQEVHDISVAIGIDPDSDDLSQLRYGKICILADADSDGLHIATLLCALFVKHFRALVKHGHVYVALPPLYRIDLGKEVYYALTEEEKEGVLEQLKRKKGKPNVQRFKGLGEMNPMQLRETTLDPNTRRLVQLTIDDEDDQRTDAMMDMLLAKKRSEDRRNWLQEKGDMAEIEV
T1 sequence (P0AFI2 whole entry, further chain): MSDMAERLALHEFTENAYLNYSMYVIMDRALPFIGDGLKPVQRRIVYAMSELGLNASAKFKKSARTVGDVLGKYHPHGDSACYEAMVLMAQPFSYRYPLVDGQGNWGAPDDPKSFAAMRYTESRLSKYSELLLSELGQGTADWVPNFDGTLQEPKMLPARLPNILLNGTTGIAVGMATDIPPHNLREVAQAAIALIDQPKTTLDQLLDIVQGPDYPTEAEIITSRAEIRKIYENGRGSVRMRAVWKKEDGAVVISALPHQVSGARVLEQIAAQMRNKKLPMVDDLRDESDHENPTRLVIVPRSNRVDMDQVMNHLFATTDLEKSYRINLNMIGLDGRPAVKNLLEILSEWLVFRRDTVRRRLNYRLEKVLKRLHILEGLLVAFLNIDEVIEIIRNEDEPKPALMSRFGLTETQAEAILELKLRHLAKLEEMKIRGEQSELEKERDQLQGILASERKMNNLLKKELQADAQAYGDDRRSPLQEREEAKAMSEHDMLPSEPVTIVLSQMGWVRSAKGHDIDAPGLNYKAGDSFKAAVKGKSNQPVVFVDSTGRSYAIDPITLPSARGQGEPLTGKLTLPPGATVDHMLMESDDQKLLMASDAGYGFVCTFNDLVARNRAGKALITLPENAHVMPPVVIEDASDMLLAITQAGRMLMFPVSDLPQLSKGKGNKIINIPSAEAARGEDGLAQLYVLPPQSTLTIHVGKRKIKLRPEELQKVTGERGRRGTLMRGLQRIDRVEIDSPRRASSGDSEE

Structure (SMILES)	Minimum inhibitory concentration (MIC) S. e [1]	Minimum inhibitory concentration (MIC) E. c [2]	Minimum inhibitory concentration (MRSA (ATCC43300) [3]) [µg/mL]	Minimum inhibitory concentration [4] [µg/mL]	IC50 against E. coli ParE enzyme (E. coli ParE enzyme) [µg/mL]	Minimum inhibitory concentration (MIC) M. t [5]	Minimum inhibitory concentration (MIC) K. p [6]	MBC [7] [µg/mL]	MBC/MIC [7]	Minimum inhibitory concentration (MIC) B. s [8]	MBC (MRSA (ATCC43300) [9]) [µg/mL]	MBC/MIC (MRSA (ATCC43300) [9])	MBC (MRSA (NCIM 5021) [10]) [µg/mL]	MBC/MIC (MRSA (NCIM 5021) [10])	Minimum inhibitory concentration (MIC) S. a [11]	Minimum inhibitory concentration (MIC) P. a [12]	Minimum inhibitory concentration (MRSA (NCIM 5021) [13]) [µg/mL]	further results
O=C(COc1ccccc1NC(=O)CCl)Nc1ccc(S(=O)(=O)O)cc1 [Compound 6]	7.89	0.86	1.71 ± 0.21 (≈ 4.29 µM)	1.56 ± 0.30 (≈ 3.91 µM)	1.19 (≈ 2.98 µM)	15.23	0.78	3.7 ± 0.12 (≈ 9.28 µM)	3	3.56	4.56 ± 0.08 (≈ 11.4 µM)	3	7.39 ± 0.18 (≈ 18.5 µM)	4	5.23	0.64	1.86 ± 0.10 (≈ 4.66 µM)	
O=C(COc1ccccc1NC(=O)CCl)Nc1cccc(Cl)c1 [Compound 10]	1.95	7.07	0.88 ± 0.10 (≈ 2.49 µM)	0.83 ± 0.05 (≈ 2.35 µM)	1.84 (≈ 5.21 µM)	5.26	14.70	0.83 ± 0.05 (≈ 2.35 µM)	1	1.97	0.88 ± 0.10 (≈ 2.49 µM)	1	0.82 ± 0.03 (≈ 2.32 µM)	1	0.92	10.81	0.82 ± 0.03 (≈ 2.32 µM)	
O=C(COc1ccccc1NC(=O)CCl)Nc1cc(Cl)c(Cl)cc1Cl [Compound 11]	1.33	7.98	0.84 ± 0.05 (≈ 1.99 µM)	0.97 ± 0.01 (≈ 2.3 µM)	1.81 (≈ 4.29 µM)	4.71	4.43	0.97 ± 0.01 (≈ 2.3 µM)	1	0.94	0.84 ± 0.05 (≈ 1.99 µM)	1	7.18 ± 0.15 (≈ 17 µM)	4	0.68	9.33	1.79 ± 0.16 (≈ 4.24 µM)	
COc1ccc(C(=O)NNC(=O)COc2ccccc2NC(=O)CCl)cc1 [Compound 13]	4.15	1.92	2.47 ± 0.46 (≈ 6.3 µM)	2.60 ± 0.26 (≈ 6.64 µM)	2.73 (≈ 6.97 µM)	1.33	0.89	9.43 ± 0.11 (≈ 24.1 µM)	4	7.10					3.28	1.25	8.36 ± 0.30 (≈ 21.3 µM)	
O=C(COc1ccccc1NC(=O)CCl)NNC(=O)c1ccccc1Cl [Compound 15]	0.64	1.63	1.51 ± 0.49 (≈ 3.81 µM)	0.98 ± 0.07 (≈ 2.47 µM)	1.33 (≈ 3.36 µM)	3.52	1.89			0.67	3.18 ± 0.32 (≈ 8.03 µM)	2			0.62	1.45	5.60 ± 0.36 (≈ 14.1 µM)	
O=C(COc1ccccc1NC(=O)CCl)NNC(=O)c1ccncc1 [Compound 16]	7.24	2.12	2.74 ± 0.19 (≈ 7.55 µM)	2.60 ± 0.28 (≈ 7.17 µM)	2.62 (≈ 7.22 µM)	1.79	2.56	9.12 ± 0.11 (≈ 25.1 µM)	4	11.59					8.99	3.23	5.65 ± 0.27 (≈ 15.6 µM)	
COc1ccc(OCC(=O)Nc2ccc(Cl)cc2)cc1 [Compound 28]	0.71	0.88	2.04 ± 0.16 (≈ 6.99 µM)	1.88 ± 0.11 (≈ 6.44 µM)	1.93 (≈ 6.62 µM)	1.47	1.98	3.85 ± 0.25 (≈ 13.2 µM)	2	2.04			10.62 ± 0.44 (≈ 36.4 µM)	4	1.21	5.55	2.70 ± 0.22 (≈ 9.26 µM)	
C[C@H]1c2cccc(O)c2C(=O)C2=C(O)[C@]3(O)C(=O)C(C(N)=O)=C(O)[C@@H](N(C)C)[C@@H]3[C@@H](O)[C@@H]21 [Doxycycline]																		FIC A (E. coli; [14]): 0.0702; FIC A (E. coli; [15]): 0.1813; FIC B (E. coli; [16]): 0.0273; FIC B (E. coli; [17]): 0.0262; Inference (E. coli; drug combined with compound 5): Synergistic (synergistic when the ΣFICs is ≤ 0.5); ΣFIC A + FIC B (E. coli; drug combined with compound 5): 0.0975; Inference (E. coli; drug combined with compound 21): Synergistic (synergistic when the ΣFICs is ≤ 0.5); ΣFIC A + FIC B (E. coli; drug combined with compound 21): 0.2075
CO[C@H]1/C=C/O[C@@]2(C)Oc3c(C)c(O)c4c(O)c(c(/C=N/N5CCN(C)CC5)c(O)c4c3C2=O)NC(=O)/C(C)=C\C=C\[C@H](C)[C@H](O)[C@@H](C)[C@@H](O)[C@@H](C)[C@H](OC(C)=O)[C@@H]1C [Rifampicin]																		FIC A (E. coli; [14]): 0.1202; FIC A (E. coli; [15]): 0.1942; FIC B (E. coli; [16]): 0.0524; FIC B (E. coli; [17]): 0.1281; Inference (E. coli; drug combined with compound 5): Synergistic (synergistic when the ΣFICs is ≤ 0.5); ΣFIC A + FIC B (E. coli; drug combined with compound 5): 0.1726; Inference (E. coli; drug combined with compound 21): Synergistic (synergistic when the ΣFICs is ≤ 0.5); ΣFIC A + FIC B (E. coli; drug combined with compound 21): 0.3223
